The record followed here is patent US20040077888A1, “Polyamine-mediated transfection” (The Regents of the University of California, priority 2002, published 2004).

SMILES strings stand for the structures.

The test system of assay [1] is NIH 3T3 cells. Nature of the assay: Transfection of NIH 3T3 cells, luciferase assay. In kind it is cell-based. As to conditions: for luciferase expression: FIG. 4, vs dimyristoyl analogs with the same DNA-binding domain. On the procedure: (§1) Cell Culture. CHO cells (ATCC, Rockville, Md.) were cultured in 75 cm^2 cell culture flasks with HAMS F12 media containing 10% bovine calf serum. NIH 3T3 cells were grown in Dulbecco's modified Eagle's medium with 10% fetal calf serum. The cells were maintained at 37° C. in a 5% CO2 environment. Twenty-four hours prior to transfection, cells were split into 24 well plates at 60% confluence.
(§2) Transfection of CHO and NIH 3T3 Cells. Liposomal suspensions of the polyamines were diluted with Dulbecco's modified essential media (serum free) to obtain the desired concentration. The suspensions were vortex mixed followed by addition of an appropriate quantity of DNA to yield lipoplex preparations at the desired N/P ratio. […] Immediately prior to transfection, the cells were prepared by aspiration of the growth media. The lipoplex preparation was added to the cells (200 μL, 1 μg DNA/well). After incubation for 2 hours, the lipoplex solution was aspirated and replaced with growth media (500 μL),
(§3) Luciferase Assay. Cells were lysed 24 hours after lipoplex administration by adding 200 μL lysis buffer. Luciferase activity was assayed using the Enhanced Luciferase Assay Kit and a Moonlight 2010 luminometer (Pharmingen, San Diego, Calif.). Luciferase activity was measured as Relative Light Units (RLUs) from an aliquot of the cell lysate over a 10 sec. period. A luciferase standard curve was produced using serial dilutions of purified firefly luciferase (Pharmingen, San Diego, Calif.). Using the standard curve, relative light units are converted to μg of luciferase per μL of sample assayed, and expressed as μg luciferase per 60,000 cells. To ensure luminometer consistency, the instrument is calibrated with a luminometer light standard containing ^14C-toluene (Pharmingen, San Diego, Calif.).

The test system of another assay is pCMV.FOX.Luc-2. Nature of the assay: Ethidium bromide displacement assay (DNA condensation). Format: binding. As to conditions: polyamine:cholesterol liposomes, FIGS. 1A-C. On the procedure:
The assay set forth in FIGS. 1A-C is based on a decrease in fluorescence that occurs when ethidium bromide is displaced from DNA by adding cationic liposomes. The lipoplexes were formed by adding a DNA-ethidium bromide solution to a solution containing variable amounts of polyamine:cholesterol liposomes. The lipoplexes were then treated with an equal volume of either water or a TRIS buffered solution at various pHs. The resulting fluorescence was then measured to determine the relative concentration of intercalated ethidium bromide.
Ethidium Bromide Displacement Assay. Ethidium bromide (153 μL of a 0.01% solution) was added to 96 μg of pCMV.FOX.Luc-2. This DNA-ethidium bromide solution was diluted to a final volume of 6 mL. Different concentrations of the polyamine liposomes were added to each well of a 96 well microplate, to which 50 μL of the DNA-ethidium bromide solution was added to obtain a final volume of 100 μL. After 5 min. the lipoplexes were treated with 100 μL of water or buffer and gently shaken. The resulting fluorescence at 250 nm excitation and 610 nm emission was measured using a SpectraMax XS microplate fluorometer (Molecular Devices, Oregon).

In assay [2] the test system is CHO cells. Nature of the assay: Transfection of CHO cells, luciferase assay. In kind it is cell-based. As to conditions: for luciferase expression: FIG. 3, vs dimyristoyl analogs with the same DNA-binding domain; for transfection activity compared with LipofectAMINE PLUS and TransFast: two cell lines (CHO, NIH-3T3), luciferase and GFP vector. As for the experimental part: as §1, §2, §3

For assay [3], the system named is CHO cells. As to the kind of experiment: GFP-annexin V flow cytometric assay in CHO cells. In kind it is cell-based. As to conditions: for GFP expression: FIG. 5, polyamines vs dimyristoyl analogs with the same DNA-binding domain.
Experimental: Cell Culture. CHO cells (ATCC, Rockville, Md.) were cultured in 75 cm^2 cell culture flasks with HAMS F12 media containing 10% bovine calf serum. […] The cells were maintained at 37° C. in a 5% CO2 environment. Twenty-four hours prior to transfection, cells were split into 24 well plates at 60% confluence.
Flow Cytometry. Cells transfected with the plasmid vector pNDeGFP were trypsinized 24 h after transfection and resuspended in Dulbecco's phosphate buffered saline (DPBS). The resuspended cells were incubated 30 min. in a solution (1:40 dilution of commercial stock) containing annexin V conjugated to biotin (CalTag, Burlingame, Calif.). After a second DPBS wash, the cells were resuspended 30 min. in a solution (1:400 dilution of commercial stock) of the Tri-color fluorophore conjugated to streptavidin (CalTag, Burlingame, Calif.). After a final DPBS wash, the cells were resuspended in 500 μL DPBS. The cells were then analyzed using a dual channel FACScan (Becton Dickinson, San Jose, Calif.) with a 15 mW, 488 nm argon laser.
Using standard techniques, FACScan gating was set with control cells that were prepared simultaneously with the transfected cells. […] GFP fluorescence was measured with a 530/30 band pass filter on channel FL1. The Tri-color fluorescence was measured with a 675 nm band pass filter on channel FL2. Transfection and mean expression were determined using the FL1 autofluorescence signal from control cells, compared to the transfected cell population.
To further determine the influence of the chemical linker on cytotoxicity, flow cytometry was used to measure cell viability. Using a GFP-annexin V flow cytometric assay, cytotoxicity was simultaneously evaluated in transfected and total cell populations.
Assay [4] has as its system NIH 3T3 cells. Nature of the assay: GFP-annexin V flow cytometric assay in NIH 3T3 cells. In kind it is cell-based. To be noted: FIG. 6, polyamines vs dimyristoyl analogs with the same DNA-binding domain. As for the experimental part: as §1, §2
Flow Cytometry. […] The cells were then analyzed using a dual channel FACScan (Becton Dickinson, San Jose, Calif.) with a 15 mW, 488 nm argon laser.
Using standard techniques, FACScan gating was set with control cells that were prepared simultaneously with the transfected cells. […] GFP fluorescence was measured with a 530/30 band pass filter on channel FL1. The Tri-color fluorescence was measured with a 675 nm band pass filter on […]. Transfection and mean expression were determined using the FL1 autofluorescence signal from control cells, compared to the transfected cell population.
Actinomycin-D (Sigma, St. Louis, Mo.) was used to treat non-transfected cells 24 hours prior to the assay to induce apoptosis. […] Non-treated cells were analyzed to establish baseline cytotoxicity and background auto-fluorescence. Each condition was transfected in triplicate and ten thousand cells were counted and simultaneously analyzed for GFP (transfection and expression) and Tri-color (annexin V) fluorescence. […]
On the technique in general: In flow cytometry, cells or beads pass a laser one at a time.

`CCCCCCCCCCCCCC(=O)OCC(COC(=O)CCCCCCCCCCCCC)(COC(=O)CCNCCN(C)C)COC(=O)CCNCCN(C)C` [polyamine 5]: the “transfection activity among the polyamines” value with NIH 3T3 cells [1] is “superior to the other polyamines”.

As to `CCCCCCCC/C=C\CCCCCCCC(=O)OCC(COC(=O)CCCCCCC/C=C\CCCCCCCC)(COC(=O)CCNCCN(C)C)COC(=O)CCNCCN(C)C` [polyamine 8], the DNA condensation entry in the assay on pCMV.FOX.Luc-2 is “condensed DNA with efficiency”. Moreover, the luciferase expression result with CHO cells [2] (CHO cells) and in the assay with NIH 3T3 cells [1] was “higher levels” in each case. Besides, the “transfection activity compared with LipofectAMINE PLUS and TransFast” value in the assay on CHO cells [2] was “roughly comparable to LipofectAMINE PLUS and TransFast”. Also, the “transfection activity among the polyamines” value in the assay on NIH 3T3 cells [1] is given as “superior to the other polyamines”. In addition, the GFP expression entry in the assay with CHO cells [3] and in the assay with NIH 3T3 cells [4] was “higher levels” in each case.

In the case of `CCCCCCCC/C=C\CCCCCCCC(=O)OCC(COC(=O)CCCCCCC/C=C\CCCCCCCC)(COC(=O)CCNCCCN(C)C)COC(=O)CCNCCCN(C)C` [polyamine 9], the DNA condensation entry in the assay on pCMV.FOX.Luc-2 was “condensed DNA with efficiency”. For the same compound, the “transfection activity among the polyamines” value with CHO cells [2] (CHO cells) was “most active analog”. The luciferase expression result in the assay on CHO cells [2] (CHO cells) and in the assay on NIH 3T3 cells [1] was “higher levels” in each case. The “transfection activity compared with LipofectAMINE PLUS and TransFast” value in the assay with CHO cells [2] was “roughly comparable to LipofectAMINE PLUS and TransFast”. Also, the GFP expression result with CHO cells [3] and in the assay with NIH 3T3 cells [4] was “higher levels” throughout. The “population of cells expressing GFP (GFP positive, Annexin V negative)” value in the assay on CHO cells [3] (FIG. 5 black bars) is “largest population of cells expressing GFP with extremely low cytotoxicity”.

Turning to `CCCCCCCC/C=C\CCCCCCCC(=O)OCC(COC(=O)CCCCCCC/C=C\CCCCCCCC)(COC(=O)CCNCCCCN(C)C)COC(=O)CCNCCCCN(C)C` [polyamine 10], the DNA condensation entry in the assay with pCMV.FOX.Luc-2 is reported as “condensed DNA with efficiency”. The luciferase expression entry in the assay with CHO cells [2] (CHO cells) and in the assay with NIH 3T3 cells [1] was “higher levels” in each case. Moreover, the GFP expression result in the assay with CHO cells [3] and in the assay with NIH 3T3 cells [4] was “higher levels” in each case.
